Measurements published in patent US9006487B2, “Amine-containing lipids and uses thereof” (Massachusetts Institute of Technology, priority 2005, dated 2015).
“And” between values parts separate entries of the source, which are not always exact repeats. Identical values can stand only once.

What was measured:
Assay type in all cases: cell-based
[1] = system: renilla and firefly luciferases; assay: siRNA delivery: reporter-protein (renilla luciferase) knockdown relative to Lipofectamine 2000, firefly luciferase as viability control; details: 50 ng of siRNA per well
Procedure: Reporter-protein knockdown achieved by the top transfecting lipids relative to Lipofectamine™ 2000 (where negative values indicate improved knockdown). The assay accounts for toxicity, monitoring expression of both renilla and firefly luciferases, where the latter serves as viability control. For each lipid, 50 ng of siRNA was added per well at specific lipid/RNA w/w ratios (from top to bottom: 2.5, 5, 10, 15).

cos-7 cells = assay: DNA transfection: luciferase expression relative to Lipofectamine 2000; details: for Luciferase expression as a percentage of that achieved using Lipofectamine 2000: 300 ng Luciferase DNA per well; for Luciferase expression as a percentage of that achieved using Lipofectamine 2000 / % of the luciferase activity obtained from the use of Lipofectamine 2000: luciferase assay after 48 hours; for % of the luciferase activity obtained from the use of Lipofectamine 2000: 300 ng DNA per well; for luciferase expression (second part of table, values relative to LIPO2000): 300 ng of DNA per well
Method in brief: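 Lipid/DNA complexes, 300 ng luciferase DNA per well at 2.5-25 w/w lipid:DNA, were formed in sodium acetate/Optimem and added to overnight-seeded cos-7 cells. Luciferase was measured by Bright-Glo luminescence after 48 hours and quantified against an enzyme standard curve. Values are expressed as % of Lipofectamine 2000 at 2.5 w/w.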

[2] = DNA delivery: raw luciferase expression (relative light units) of best-transfecting lipids; details: 300 ng of DNA per well
Procedure: Raw values for luciferase expression (relative lights units) of best-transfecting lipids at lipid/DNA (w/w) ratios listed. 300 ng of DNA was added per well.

[3] = 1st column, no head printed (2.5 w/w by the raw values)
[4] = 2nd column, no head printed (5 w/w by the raw values)
[5] = 3rd column, no head printed (10 w/w by the raw values)
[6] = 4th column, no head printed (15 w/w by the raw values)

SMILES	Reporter-protein knockdown relative to Lipofectamine 2000 (negative values indicate improved knockdown) ([1]; lipid/RNA 2.5 w/w)	Reporter-protein knockdown relative to Lipofectamine 2000 (negative values indicate improved knockdown) ([1]; lipid/RNA 5 w/w)	Reporter-protein knockdown relative to Lipofectamine 2000 (negative values indicate improved knockdown) ([1]; lipid/RNA 10 w/w)	Reporter-protein knockdown relative to Lipofectamine 2000 (negative values indicate improved knockdown) ([1]; lipid/RNA 15 w/w)	Luciferase expression as a percentage of that achieved using Lipofectamine 2000 (cos-7 cells; lipid/DNA 2.5 w/w) [%]	Luciferase expression as a percentage of that achieved using Lipofectamine 2000 (cos-7 cells; lipid/DNA 5 w/w) [%]	Luciferase expression as a percentage of that achieved using Lipofectamine 2000 (cos-7 cells; lipid/DNA 10 w/w) [%]	Luciferase expression as a percentage of that achieved using Lipofectamine 2000 (cos-7 cells; lipid/DNA 15 w/w) [%]	Luciferase expression as a percentage of that achieved using Lipofectamine 2000 (cos-7 cells; lipid/DNA 20 w/w) [%]	Luciferase expression as a percentage of that achieved using Lipofectamine 2000 (cos-7 cells; lipid/DNA 25 w/w) [%]	Raw values for luciferase expression ([2]; lipid/DNA 2.5 w/w)	luciferase expression (second part of table, values relative to LIPO2000) (cos-7 cells; lipid/DNA 2.5 w/w)	luciferase expression (second part of table, values relative to LIPO2000) (cos-7 cells; lipid/DNA 5 w/w)	luciferase expression (second part of table, values relative to LIPO2000) (cos-7 cells; lipid/DNA 10 w/w)	luciferase expression (second part of table, values relative to LIPO2000) (cos-7 cells; lipid/DNA 15 w/w)	further results
CCCCCCCCCCCCCCCOC(=O)CCN(CCCCCO)CCC(=O)OCCCCCCCCCCCCCCC [LG32]	58.1	41.51	44.71	−13.6483	0.2	10.2	1.0	0.7	0.4	0.7	–	–	–	–	–	–
CCCCCCCCCCCCCCCOC(=O)CCN(CCC(=O)OCCCCCCCCCCCCCCC)CCC1CCCN1C (centres unmarked) [LG77]	71.01	−0.05414	−7.721	−21.3897	0.0	0.0	–	–	0.0	0.0	–	–	–	–	–	% of the luciferase activity obtained from the use of Lipofectamine 2000 (cos-7 cells; 10 w/w lipid to DNA): 43.5%; % of the luciferase activity obtained from the use of Lipofectamine 2000 (cos-7 cells; 15 w/w lipid to DNA): 34.0%
CCCCCCCCCCCCCCCOC(=O)CCN(CCCN(C)C)CCC(=O)OCCCCCCCCCCCCCCC [LG80]	2.007	−9.09	−15.9409	−21.0263	2.2	11.9	19.8	31.3	21.9	17.4	–	–	–	–	–	–
CCCCCCCCCCCCCCCOC(=O)CCN(CCO)CCN(CCC(=O)OCCCCCCCCCCCCCCC)CCC(=O)OCCCCCCCCCCCCCCC [LG109]	55.7409	43.9	−5.231	−11.1255	16.3	36.0	23.4	37.9	25.7	34.5	–	–	–	–	–	–
CCCCCCCCCCCCNC(=O)CCN(C)CCN(CCC(=O)NCCCCCCCCCCCC)CCC(=O)NCCCCCCCCCCCC [ND95]	19.8058	8.319	−5.205	−7.163	–	–	–	–	–	–	2875811 relative lights units	11.3	30.9	37.6	53.4	Raw values for luciferase expression ([2]; lipid/DNA 5 w/w): 4619654 relative lights units; Raw values for luciferase expression ([2]; lipid/DNA 10 w/w): 7977064 relative lights units; Raw values for luciferase expression ([2]; lipid/DNA 15 w/w): 10279185 relative lights units; luciferase expression (second part of table, values relative to LIPO2000) (cos-7 cells; lipid/DNA 20 w/w): 37.8; luciferase expression (second part of table, values relative to LIPO2000) (cos-7 cells; lipid/DNA 25 w/w): 54.0
CCCCCCCCCCCCNC(=O)CCN(CCC(=O)NCCCCCCCCCCCC)CCN(CCC(=O)NCCCCCCCCCCCC)CCN(CCC(=O)NCCCCCCCCCCCC)CCN(CCC(=O)NCCCCCCCCCCCC)CCC(=O)NCCCCCCCCCCCC [ND98]	−4.005	−4.482	−4.634	−13.9514	–	–	–	–	–	–	5649897 relative lights units and 6947385 relative lights units	22.2	5.3	0.5	0.4	Raw values for luciferase expression ([2]; lipid/DNA 10 w/w): 1824773 relative lights units; Raw values for luciferase expression ([2]; lipid/DNA 15 w/w): 643862 relative lights units; luciferase expression (second part of table, values relative to LIPO2000) (cos-7 cells; lipid/DNA 20 w/w): 0.4; luciferase expression (second part of table, values relative to LIPO2000) (cos-7 cells; lipid/DNA 25 w/w): 0.3; luciferase expression, second set of columns (replicate set of data) (cos-7 cells; [3]): 78.4; luciferase expression, second set of columns (replicate set of data) (cos-7 cells; [4]): 65.8; luciferase expression, second set of columns (replicate set of data) (cos-7 cells; [5]): 26.0; luciferase expression, second set of columns (replicate set of data) (cos-7 cells; [6]): 9.2
CCCCCCCCCCCCNC(=O)CCN(CCCN(CCC(=O)NCCCCCCCCCCCC)CCC(=O)NCCCCCCCCCCCC)CCC(=O)NCCCCCCCCCCCC [ND100]	10.88	−7.546	−21.4945	−8.3303	–	–	–	–	–	–	–	45.7	48.0	20.8	2.7	luciferase expression, second set of columns (replicate set of data) (cos-7 cells; [3]): 62.6; luciferase expression, second set of columns (replicate set of data) (cos-7 cells; [4]): 37.4; luciferase expression, second set of columns (replicate set of data) (cos-7 cells; [5]): 2.5; luciferase expression, second set of columns (replicate set of data) (cos-7 cells; [6]): 0.6
CCCCCCCCCCCCCCCNC(=O)CCN(CC)CCCN(CC)CCC(=O)NCCCCCCCCCCCCCCC [NG64]	−11.7697	−34.6712	3.073	1.439	–	–	–	–	–	–	2585784 relative lights units	–	–	–	–	Raw values for luciferase expression ([2]; lipid/DNA 5 w/w): 1972838 relative lights units
